Assays:
corn = test: Test B pre/postemergence corn; assay type: in vivo, Zea mays
In short: (§1)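 Response is a visual 0-to-10 score relative to untreated plants, where 0 means no effect and 10 means complete control, taken twelve to sixteen days after application. Treatments went onto soil at planting and onto foliage of 1- to 4-leaf plants, using a surfactant-containing non-phytotoxic solvent.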

smallflower flatsedge = test: Test B flood test smallflower flatsedge; assay type: in vivo, Cyperus difformis
In short: (§2)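 Read-out is a visual response score from 0 (no effect) to 10 (complete control), assigned by comparison with untreated controls. Treatment was applied at the 2-leaf stage, and plants stayed in the greenhouse for twelve to sixteen days before scoring.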

velvetleaf = test: Test B pre/postemergence velvetleaf; assay type: in vivo, Abutilon theophrasti
In short: as §1

cocklebur = test: Test B pre/postemergence cocklebur; assay type: in vivo, Xanthium strumarium
In short: as §1

wild oat = test: Test B pre/postemergence wild oat; assay type: in vivo, Avena fatua
In short: as §1

surinam grass = test: Test B pre/postemergence surinam grass; assay type: in vivo, Brachiaria decumbens
In short: as §1

soybean = test: Test B pre/postemergence soybean; assay type: in vivo, Glycine max
In short: as §1

rice = test: Test B flood test rice; assay type: in vivo, Oryza sativa
In short: as §2

crabgrass = test: Test B pre/postemergence crabgrass; assay type: in vivo, Digitaria sanguinalis
In short: as §1

bamyardgrass = test: Test B flood test barnyardgrass; assay type: in vivo, Echinochloa crus-galli
In short: as §2

purple nutsedge = test: Test B pre/postemergence purple nutsedge; assay type: in vivo, Cyperus rotundus
In short: as §1

bedstraw = test: Test B pre/postemergence bedstraw; assay type: in vivo, Galium aparine
In short: as §1

sugar beet = test: Test B pre/postemergence sugar beet; assay type: in vivo, Beta vulgaris
In short: as §1

blackgrass = test: Test B pre/postemergence blackgrass; assay type: in vivo, Alopecurus myosuroides
In short: as §1

wheat = test: Test B pre/postemergence wheat; assay type: in vivo, Triticum aestivum
In short: as §1

duck salad = test: Test B flood test duck salad; assay type: in vivo, Heteranthera limosa
In short: as §2

[1] = Postemergence, Rate 125 g/ha, scale of 0 to 10 where 0 is no effect and 10 is complete control
[2] = Postemergence, Rate 1000 g/ha, scale 0 to 10 (0 no effect, 10 complete control)
[3] = Preemergence, Rate 125 g/ha, 0 is no effect, 10 is complete control
[4] = Preemergence, Rate 250 g/ha, scale 0 to 10, 0 is no effect, 10 is complete control
[5] = Preemergence, Rate 500 g/ha, scale 0 to 10 (0 no effect, 10 complete control)
[6] = Rate 250 g/ha, Postemergence, scale 0 to 10, 0 is no effect, 10 is complete control
[7] = Rate 500 g/ha, Postemergence, scale 0 to 10
[8] = Rate 1000 g/ha, Preemergence, scale 0 to 10 (0 no effect, 10 complete control)
[9] = Postemergence (flood test species), Rate 125 g/ha, scale of 0 to 10 where 0 is no effect and 10 is complete control
[10] = Rate 250 g/ha, Postemergence (flood test), scale 0 to 10, 0 is no effect, 10 is complete control
[11] = Rate 500 g/ha, listed under Postemergence (flood test species), scale 0 to 10

## Cc1ccccc1-n1c(=O)on(C(=O)N(c2c(F)cccc2F)C(C)C)c1=O [Compound 176]
corn; [1]
  Corn plant response rating: 0
corn; [2]
  Corn plant response rating: 0
corn; [3]
  Corn plant response rating (0 to 10 scale): 0
corn; [4]
  Corn plant response rating: 0
corn; [5]
  Corn plant response rating: 0
corn; [6]
  Plant response rating, Corn: 0
corn; [7]
  Corn plant response rating: 0
corn; [8]
  Plant response rating, Corn: 2
Smallflower flatsedge; [9]
  S. Flatsedge plant response rating: 0
Smallflower flatsedge; [2]
  S. Flatsedge plant response rating: 0
Smallflower flatsedge; [10]
  Plant response rating, S. Flatsedge: 0
Smallflower flatsedge; [11]
  S. Flatsedge plant response rating: 0
velvetleaf; [2]
  Velvetleaf plant response rating: 3
velvetleaf; [3]
  Velvetleaf plant response rating (0 to 10 scale): 0
velvetleaf; [4]
  Velvetleaf plant response rating: 0
velvetleaf; [5]
  Velvetleaf plant response rating: 2
velvetleaf; [6]
  Plant response rating, Velvetleaf: 2
velvetleaf; [7]
  Velvetleaf plant response rating: 2
velvetleaf; [8]
  Plant response rating, Velvetleaf: 5
cocklebur; [1]
  Cocklebur plant response rating: 2
cocklebur; [2]
  Cocklebur plant response rating: 6
cocklebur; [3]
  Cocklebur plant response rating (0 to 10 scale): 0
cocklebur; [4]
  Cocklebur plant response rating: 0
cocklebur; [5]
  Cocklebur plant response rating: 0
cocklebur; [6]
  Plant response rating, Cocklebur: 2
cocklebur; [7]
  Cocklebur plant response rating: 3
cocklebur; [8]
  Plant response rating, Cocklebur: 0
Wild oat; [2]
  Wild oats plant response rating: 4
Wild oat; [3]
  Wild oats plant response rating (0 to 10 scale): 0
Wild oat; [4]
  Wild oats plant response rating: 3
Wild oat; [5]
  Wild oats plant response rating: 5
Wild oat; [6]
  Plant response rating, Wild oats: 0
Wild oat; [7]
  Wild oats plant response rating: 0
Wild oat; [8]
  Plant response rating, Wild oats: 5
Surinam grass; [1]
  B. signalgrass plant response rating: 0
Surinam grass; [2]
  B. signalgrass plant response rating: 2
Surinam grass; [3]
  B. signalgrass plant response rating (0 to 10 scale): 0
Surinam grass; [4]
  B. signalgrass plant response rating: 0
Surinam grass; [5]
  B. signalgrass plant response rating: 0
Surinam grass; [6]
  Plant response rating, B. signalgrass: 0
Surinam grass; Rate 500 g/ha, Postemergence, scale 0 to 10, 0 no effect, 10 complete control
  B. signalgrass plant response rating: 0
Surinam grass; [8]
  Plant response rating, B. signalgrass: 3
soybean; [1]
  Soybean plant response rating: 2
soybean; [2]
  Soybean plant response rating: 4
soybean; [3]
  Soybean plant response rating (0 to 10 scale): 0
soybean; [4]
  Soybean plant response rating: 0
soybean; [5]
  Soybean plant response rating: 0
soybean; [6]
  Plant response rating, Soybean: 2
soybean; [7]
  Soybean plant response rating: 4
soybean; [8]
  Plant response rating, Soybean: 2
rice; [9]
  Rice plant response rating: 0
rice; [2]
  Rice plant response rating: 0
rice; [10]
  Plant response rating, Rice: 0
rice; [11]
  Rice plant response rating: 0
crabgrass; [1]
  Crabgrass plant response rating: 0
crabgrass; [2]
  Crabgrass plant response rating: 9
crabgrass; [3]
  Crabgrass plant response rating (0 to 10 scale): 8
crabgrass; [4]
  Crabgrass plant response rating: 9
crabgrass; [5]
  Crabgrass plant response rating: 10
crabgrass; [6]
  Plant response rating, Crabgrass: 3
crabgrass; [7]
  Crabgrass plant response rating: 6
crabgrass; [8]
  Plant response rating, Crabgrass: 10
bamyardgrass; [9]
  Barnyardgrass plant response rating: 0
bamyardgrass; [2]
  Barnyardgrass plant response rating: 0
bamyardgrass; [10]
  Plant response rating, Barnyardgrass: 0
bamyardgrass; [11]
  Barnyardgrass plant response rating: 0
Purple nutsedge; [1]
  Nutsedge plant response rating: 0
Purple nutsedge; [3]
  Nutsedge plant response rating (0 to 10 scale): 0
Purple nutsedge; [4]
  Nutsedge plant response rating: 0
Purple nutsedge; [5]
  Nutsedge plant response rating: 0
Purple nutsedge; [6]
  Plant response rating, Nutsedge: 0
Purple nutsedge; [7]
  Nutsedge plant response rating: 0
Purple nutsedge; [8]
  Plant response rating, Nutsedge: 10
bedstraw; [1]
  Bedstraw plant response rating: 0
bedstraw; [2]
  Bedstraw plant response rating: 9
bedstraw; [3]
  Bedstraw plant response rating (0 to 10 scale): 0
bedstraw; [4]
  Bedstraw plant response rating: 0
bedstraw; [5]
  Bedstraw plant response rating: 0
bedstraw; [6]
  Plant response rating, Bedstraw: 2
bedstraw; [7]
  Bedstraw plant response rating: 8
bedstraw; [8]
  Plant response rating, Bedstraw: 6
Sugar beet; [1]
  Sugarbeets plant response rating: 0
Sugar beet; [2]
  Sugarbeets plant response rating: 4
Sugar beet; [3]
  Sugarbeets plant response rating (0 to 10 scale): 0
Sugar beet; [4]
  Sugarbeets plant response rating: 0
Sugar beet; [5]
  Sugarbeets plant response rating: 2
Sugar beet; [6]
  Plant response rating, Sugarbeets: 0
Sugar beet; [7]
  Sugarbeets plant response rating: 0
Sugar beet; [8]
  Plant response rating, Sugarbeets: 6
blackgrass; [1]
  Blackgrass plant response rating: 0
blackgrass; [2]
  Blackgrass plant response rating: 7
blackgrass; [3]
  Blackgrass plant response rating (0 to 10 scale): 0
blackgrass; [4]
  Blackgrass plant response rating: 2
blackgrass; [5]
  Blackgrass plant response rating: 3
blackgrass; [6]
  Plant response rating, Blackgrass: 0
blackgrass; [7]
  Blackgrass plant response rating: 3
blackgrass; [8]
  Plant response rating, Blackgrass: 7
wheat; [2]
  Wheat plant response rating: 4
wheat; [3]
  Wheat plant response rating (0 to 10 scale): 0
wheat; [4]
  Wheat plant response rating: 0
wheat; [5]
  Wheat plant response rating: 0
wheat; [6]
  Plant response rating, Wheat: 0
wheat; [7]
  Wheat plant response rating: 2
wheat; [8]
  Plant response rating, Wheat: 4
Duck salad; [9]
  Ducksalad plant response rating: 0
Duck salad; [2]
  Ducksalad plant response rating: 0
Duck salad; [10]
  Plant response rating, Ducksalad: 0
Duck salad; [11]
  Ducksalad plant response rating: 0

Reference: patent publication US6737383B1, “Herbicidal oxadiazolidines” (priority 1999, dated 2004)
